Results: patent US10369138B2, “Monobactam organic compounds for the treatment of bacterial infections” (Novartis AG, priority 2014, dated 2019)
Values after ≈ are worked out from the molar mass of the structure shown.

Columns and labels:
E. coli strain 25922 = assay: MIC by broth microdilution, E. coli strain 25922; format: cell-based; conditions: Escherichia coli, 25922, E. coli strain 25922; read-out: Ec 25922 (MIC)
Outline: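 CLSI broth microdilution in cation-adjusted Mueller-Hinton broth, inoculum about 5×10^5 CFU/mL, 10% DMSO from the diluted series, 20 h at 35-37° C. MIC is the lowest concentration preventing visible growth, read by eye and at 600 nm.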

E. coli containing KPC-2 = assay: MIC by broth microdilution, E. coli containing KPC-2 (Ec KPC2 Iso); format: cell-based; conditions: Escherichia coli, read-out: Ec KPC2 Iso (MIC), E. coli containing KPC-2 (carbapenemase from Klebsiella pneumoniae)
Outline: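 Host E. coli BW25113 pspB carrying multicopy pBAD18-kan plasmid with constitutive TEM-promoter KPC-2 expression (periplasmic signal sequence); broth microdilution per CLSI in cation-adjusted Mueller-Hinton broth, inoculum ~5×10^5 CFU/mL, compounds twofold serially diluted from DMSO masters (10% DMSO in dilution series added).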

## N=C(NCCN)c1ccc(OC[C@H](O/N=C(\C(=O)N[C@@H]2C(=O)N(S(=O)(=O)O)[C@@H]2Cn2cncn2)c2csc(N)n2)C(=O)O)cc1 [Example 67, (S)-2-(((Z)-(2-(((2R,3S)-2-((1H-1,2,4-triazol-1-yl)methyl)-4-oxo-1-sulfoazetidin-3-yl)amino)-1-(2-aminothiazol-4-yl)-2-oxoethylidene)amino)oxy)-3-(4-(N-(2-aminoethyl)carbamimidoyl)phenoxy)propanoic acid]
E. coli strain 25922
  MIC: 0.25 µg/mL (≈ 0.376 µM)
E. coli containing KPC-2
  MIC: 0.125 µg/mL (≈ 0.188 µM)

## NCC(=O)NCc1cnn(C[C@@H]2[C@H](NC(=O)/C(=N\OC3(C(=O)O)CC3)c3csc(N)n3)C(=O)N2S(=O)(=O)O)n1 [Example 134, 1-(((Z)-(2-(((2R,3S)-2-((4-((2-aminoacetamido)methyl)-2H-1,2,3-triazol-2-yl)methyl)-4-oxo-1-sulfoazetidin-3-yl)amino)-1-(2-aminothiazol-4-yl)-2-oxoethylidene)amino)oxy)cyclopropanecarboxylic acid]
E. coli strain 25922
  MIC: 0.5 µg/mL (≈ 0.852 µM)
E. coli containing KPC-2
  MIC: 0.25 µg/mL (≈ 0.426 µM)

## N=C(NCCOCCN)NCc1cnn(C[C@@H]2[C@H](NC(=O)/C(=N\OC3(C(=O)O)CC3)c3csc(N)n3)C(=O)N2S(=O)(=O)O)n1 [Example 147, 1-(((Z)-(2-(((2R,3S)-2-((4-((3-(2-(2-aminoethoxy)ethyl)guanidino)methyl)-2H-1,2,3-triazol-2-yl)methyl)-4-oxo-1-sulfoazetidin-3-yl)amino)-1-(2-aminothiazol-4-yl)-2-oxoethylidene)amino)oxy)cyclopropanecarboxylic acid]
E. coli strain 25922
  MIC: 0.5 µg/mL (≈ 0.759 µM)
E. coli containing KPC-2
  MIC: 0.5 µg/mL (≈ 0.759 µM)

## N=C(N[C@H]1CCNC1)c1ccc(OC[C@H](O/N=C(\C(=O)N[C@@H]2C(=O)N(S(=O)(=O)O)[C@@H]2Cn2cncn2)c2csc(N)n2)C(=O)O)cc1 [Example 71, (S)-2-(((Z)-(2-(((2R,3S)-2-((1H-1,2,4-triazol-1-yl)methyl)-4-oxo-1-sulfoazetidin-3-yl)amino)-1-(2-aminothiazol-4-yl)-2-oxoethylidene)amino)oxy)-3-(4-(N—((S)-pyrrolidin-3-yl)carbamimidoyl)phenoxy)propanoic acid]
E. coli strain 25922
  MIC: 0.25 µg/mL (≈ 0.361 µM)
E. coli containing KPC-2
  MIC: 0.25 µg/mL (≈ 0.361 µM)

## NCc1cnn(C[C@@H]2[C@H](NC(=O)/C(=N\OC3(C(=O)O)CC3)c3csc(N)n3)C(=O)N2S(=O)(=O)O)n1 [Example 19, 1-(((Z)-(2-(((2R,3S)-2-((4-(aminomethyl)-2H-1,2,3-triazol-2-yl)methyl)-4-oxo-1-sulfoazetidin-3-yl)amino)-1-(2-aminothiazol-4-yl)-2-oxoethylidene)amino)oxy)cyclopropanecarboxylic acid]
E. coli strain 25922
  MIC: 0.25 µg/mL (≈ 0.472 µM)
E. coli containing KPC-2
  MIC: 0.25 µg/mL (≈ 0.472 µM)

## Cc1c[n+](C)ccc1-c1cn(C[C@@H]2[C@H](NC(=O)/C(=N\OC(C)(C)C(=O)O)c3csc(N)n3)C(=O)N2S(=O)(=O)O)nn1 [Example 49, (2R,3S)-3-((Z)-2-(2-aminothiazol-4-yl)-2-(((2-carboxypropan-2-yl)oxy)imino)acetamido)-2-((4-(1,3-dimethylpyridin-1-ium-4-yl)-1H-1,2,3-triazol-1-yl)methyl)-4-oxoazetidine-1-sulfonate]
E. coli strain 25922
  MIC: 2 µg/mL
E. coli containing KPC-2
  MIC: 16 µg/mL

## NCc1nn(C[C@@H]2[C@H](NC(=O)/C(=N\OC3(C(=O)O)CC3)c3csc(N)n3)C(=O)N2S(=O)(=O)O)nc1CN [Example 109, 1-(((Z)-(1-(2-aminothiazol-4-yl)-2-(((2R,3S)-2-((4,5-bis(aminomethyl)-2H-1,2,3-triazol-2-yl)methyl)-4-oxo-1-sulfoazetidin-3-yl)amino)-2-oxoethylidene)amino)oxy)cyclopropanecarboxylic acid]
E. coli strain 25922
  MIC: 0.125 µg/mL (≈ 0.224 µM)
E. coli containing KPC-2
  MIC: 0.25 µg/mL (≈ 0.448 µM)

## N=C(NCc1cnn(C[C@@H]2[C@H](NC(=O)/C(=N\OC3(C(=O)O)CC3)c3csc(N)n3)C(=O)N2S(=O)(=O)O)n1)N[C@@H]1CCNC1 (stereo in doubt) [Example 142, 1-(((Z)-(1-(2-aminothiazol-4-yl)-2-oxo-2-(((3S,4R)-2-oxo-4-((4-((3-(®-pyrrolidin-3-yl)guanidino)methyl)-2H-1,2,3-triazol-2-yl)methyl)-1-sulfoazetidin-3-yl)amino)ethylidene)amino)oxy)cyclopropanecarboxylic acid]
E. coli strain 25922
  MIC: 0.5 µg/mL (≈ 0.78 µM)
E. coli containing KPC-2
  MIC: 0.25 µg/mL (≈ 0.39 µM)
